These antisense oligonucleotides have a phosphorothioate backbone; sugars and methylation of C are not fully specified.

One series addresses TRADD. Particulars: ASO.
Another series concerns the target GNA11. The settings on record: ASO.
Note: test concentration or dose not given here.

For the sequence AAACTGTAAGGGCTGGCT, the remaining target (mRNA or protein) (fraction of control) with TRADD amounted to 0.91.

Regarding AAAGATCAAGGTGCTTCA, in the series with TRADD, the remaining target (mRNA or protein) (fraction of control) was ≥ 1.

In the series with TRADD, AAAGTCTGGGCAGGTGGC returned a remaining target (mRNA or protein) (fraction of control) of 0.56.

As for AAGCCGCGCTTGTCCTCC, in the series with GNA11, the remaining target (mRNA or protein) (fraction of control) came to 0.44. AAGGTGAGGCTGATCTCC: in the series with TRADD, the remaining target (mRNA or protein) (fraction of control) stood at 0.72. AAGTAGTCCACCAGGTGC: in the series with GNA11, the remaining target (mRNA or protein) (fraction of control) was ≥ 1. Consider AATAGCCGCAGAAGGAAC, for which, in the series with TRADD, the remaining target (mRNA or protein) (fraction of control) stood at 0.83. In the case of ACCAGATTGTACTCCTTC, in the series with GNA11, the remaining target (mRNA or protein) (fraction of control) was ≥ 1. As to ACCCTAAGGCCATCCAGG, in the series with TRADD, the remaining target (mRNA or protein) (fraction of control) amounted to 0.64. For ACGGCCGCGAACACGAAG, the remaining target (mRNA or protein) (fraction of control) with GNA11 is 0.94.

Sequence ACGTGCTCTTCCCGCTCT displayed a remaining target (mRNA or protein) (fraction of control) with GNA11 of 0.72. Still for that read-out and setting: as for ACTGACGTACTGATGCTC, the figure is 0.64. As for ACTTTATTATCATTGCTT, in the series with TRADD, the remaining target (mRNA or protein) (fraction of control) is 0.66. As to AGATGATGTTCTCCAGGT, in the series with GNA11, the remaining target (mRNA or protein) (fraction of control) is ≥ 1. For the sequence AGATTTCGCAGCGCATCC, in the series with TRADD, the remaining target (mRNA or protein) (fraction of control) is ≥ 1. On the same count and under the same terms, as for AGCGGCACCGAGTGCTGG, the figure is ≥ 1; as for AGCTCCAGTTGCAGCGGC, 0.82.

For the sequence AGCTGCCATCTCACCTCC, the remaining target (mRNA or protein) (fraction of control) in the series with TRADD was ≥ 1. Take AGGGCTTTGCTCTCCTCC: the remaining target (mRNA or protein) (fraction of control) with GNA11 amounted to 0.23. In turn, AGTGAGCGCCCCACCTTG yielded a remaining target (mRNA or protein) (fraction of control) in the series with TRADD of 0.98. Same read-out and setting: under AGTGCTGGGCGAGCGCGG stands ≥ 1; under AGTTGCAGCGGCACCGAG, ≥ 1.

Consider ATCCGCTTGGACTCCTTC, for which the remaining target (mRNA or protein) (fraction of control) with GNA11 is 0.83. ATCCGGAAGATGATGTTC: the remaining target (mRNA or protein) (fraction of control) in the series with GNA11 was ≥ 1. For ATCCGGTTCTCGTTGTCC, the remaining target (mRNA or protein) (fraction of control) with GNA11 turned out to be 0.78. Regarding ATCTGCTTGATGAACGTG, in the series with GNA11, the remaining target (mRNA or protein) (fraction of control) was ≥ 1. ATCTTGTCCTCCAGCAGG had a remaining target (mRNA or protein) (fraction of control) with GNA11 of 0.96. ATGAAGTCCAGGACACCA: in the series with TRADD, the remaining target (mRNA or protein) (fraction of control) was ≥ 1. In the case of ATGATGGATGTCACGTTC, in the series with GNA11, the remaining target (mRNA or protein) (fraction of control) is ≥ 1. The same measure, in the same setting: under ATGTTCTCCGTGTCGGTG stands ≥ 1. CAAGATTGATTCCTGTTT returned a remaining target (mRNA or protein) (fraction of control) with TRADD of 0.94. Still for that read-out and setting: under CACCCACTCTTCGTGCCC stands ≥ 1. Turning to CACGCCATGATGGACTCC, the remaining target (mRNA or protein) (fraction of control) with GNA11 was ≥ 1. As for CACGTGAAGTGTGAGTAG, in the series with GNA11, the remaining target (mRNA or protein) (fraction of control) is ≥ 1. In the case of CAGCGCCCGGCAGCCTCG, the remaining target (mRNA or protein) (fraction of control) with TRADD was ≥ 1. As to CAGGAGCGCATTGGCCTT, in the series with GNA11, the remaining target (mRNA or protein) (fraction of control) was ≥ 1. Regarding CAGGCCGCCATTGGGATC, in the series with TRADD, the remaining target (mRNA or protein) (fraction of control) was ≥ 1. On to CAGGGTCTTGATGGCACT, for which the remaining target (mRNA or protein) (fraction of control) with GNA11 is ≥ 1. The sequence CATTTGAGACCCACAGAG came in with a remaining target (mRNA or protein) (fraction of control) with TRADD of 0.83. Same read-out and setting: under CCACCTTGTCCAGCGAGG stands 0.59; under CCACGCTGAGTGTGAGCT, 0.68. In the case of CCAGGTCGAAAGGGTACT, in the series with GNA11, the remaining target (mRNA or protein) (fraction of control) is ≥ 1. The same measure, in the same setting: as for CCATCCGGTTCTCGTTGT, the figure is 0.81. Take CCCACCCCACACTCTATC: the remaining target (mRNA or protein) (fraction of control) in the series with TRADD was 0.47. The same measure, in the same setting: under CCCAGCAAGTCCTCTGCC stands 0.75; under CCCCGAGCCGCACTTCAG, 0.77.

In the series with GNA11, CCCGCCGCAGCTGCTTCT had a remaining target (mRNA or protein) (fraction of control) of 0.42.

In the series with GNA11, CGACTCCACCAGGACTTG had a remaining target (mRNA or protein) (fraction of control) of 0.6. Same read-out and setting: under CGAGAAACATGATGGATG stands ≥ 1. As to CGCATCTGCTTGATGAAC, the remaining target (mRNA or protein) (fraction of control) with GNA11 was ≥ 1. Still for that read-out and setting: as for CGCCTGCGGTCGTAGCAT, the figure is ≥ 1; as for CGGATCATGGCCTGCATG, 0.99. With CGTCCTGCTGGGTGGGCA, in the series with GNA11, the remaining target (mRNA or protein) (fraction of control) was 0.6. The same measure, in the same setting: under CGTCTCCATGGCCCGGAT stands 0.51; under CGTTGATCCGCTTGGACT, ≥ 1. The sequence CTCATCGCTCAGGCAACA showed a remaining target (mRNA or protein) (fraction of control) with GNA11 of 0.39. CTCCACGTCCACCTCCCG came in with a remaining target (mRNA or protein) (fraction of control) with GNA11 of 0.31. Still for that read-out and setting: under CTCCGCTCCGACCGCTGG stands 0.44. On the same count and under the same terms, under CTCGATCTCGGCGTTGAT stands ≥ 1.

These data come from the OligoGym collection.
